Source: publication PMC7734281, “Functionalized Oxoindolin Hydrazine Carbothioamide Derivatives as Highly Potent Inhibitors of Nucleoside Triphosphate Diphosphohydrolases” (Frontiers in Pharmacology, 2020)

Columns and labels:
h-NTPDase1 = biological target: T1, h-NTPDase1 (Homo sapiens, UniProt P49961); set-up: method as in Lecka et al., 2013; details: selective inhibitor of h-NTPDase1; ref Lecka et al., 2013; cited from earlier work
T1 construct: made in house; host or cells: COS-7 cells, transient transfection; crude protein extract after sonication
T1 sequence (P49961 1-510): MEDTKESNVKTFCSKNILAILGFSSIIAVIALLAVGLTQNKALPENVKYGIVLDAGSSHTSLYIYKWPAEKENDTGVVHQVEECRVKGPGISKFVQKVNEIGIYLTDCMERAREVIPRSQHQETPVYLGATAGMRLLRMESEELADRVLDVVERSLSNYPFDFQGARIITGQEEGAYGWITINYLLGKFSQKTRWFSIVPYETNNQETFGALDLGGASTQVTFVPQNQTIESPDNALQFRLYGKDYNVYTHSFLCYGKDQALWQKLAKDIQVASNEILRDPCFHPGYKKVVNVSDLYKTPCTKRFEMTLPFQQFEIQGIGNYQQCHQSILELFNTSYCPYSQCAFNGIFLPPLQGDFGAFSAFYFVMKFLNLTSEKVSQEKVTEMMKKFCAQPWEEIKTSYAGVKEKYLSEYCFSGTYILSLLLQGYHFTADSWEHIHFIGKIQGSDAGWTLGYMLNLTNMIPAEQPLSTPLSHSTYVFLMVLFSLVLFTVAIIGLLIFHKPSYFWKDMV

mice pancreatic islets = test: Glucose stimulated insulin secretion in isolated mice islets (ELISA); format: cell-based, BALB/c mice; details: 16.7 mM glucose, compound 200 µM, 1 h, 37°C
Protocol: Six to eight week old BALB/c mice, weighing 30–40 g, were used in the study. These mice were obtained from the animal house of COMSATS University Islamabad, Abbottabad Campus and placed under standard temperature (25 ± 2°C) and humidity (50–55%) conditions with an alternate 12-h light/dark cycle. All the experimental animals were provided with a continuous supply of food and water. The animals were handled according to internationally accepted guidelines of animal care and use. Moreover, this study was reviewed and approved by Research Ethics Committee, Department of Pharmacy, COMSATS University Islamabad, Abbottabad Campus. (Protocol number: PHM.Eth./CS-M01-020-1609)
The islets were isolated from mice pancreas as previously described, by a process involving collagenase digestion ([Hameed et al., 2018]). Briefly, mice were anesthetized with sodium thiopental (30 mg kg) and sacrificed by cervical dislocation to block the flow of blood. Immediately, mice were transferred to biological hood and their abdominal cavity was opened completely by making an incision on abdomen. In order to stop the bile flow toward duodenum, ampulla was located and clamped under dissection microscope. Then, distention of pancreas was carried out by injecting 3 ml of collagenase solution (1 mg/ml) through common bile duct. The distended pancreas was removed as a whole, transferred to a 50 ml tube and digested in collagenase solution at 37°C. After 15 min, digestion was stopped by placing the tube on ice and 20 ml of Hank’s Balanced Salt Solution (HBSS) was added to it. Thus the digested islets were washed with HBSS (two to three times) by centrifugation (1,000 rpm) for 1 min at 4°C. Finally, islets were purified by passing through a cell strainer (70 µm) and isolated manually (by hand picking) under stereomicroscope (Euromex, Arnhem, Netherlands). All the purification and isolation procedures were carried out in HBSS, containing no magnesium, calcium and phenol red.
Krebs-Ringer bicarbonate buffer (KRBB) was used as an incubation medium for islets and was composed of NaCl (118 mM), KCl (4.7 mM), CaCl2 (1.9 mM), MgSO4 (1.2 mM), NaHCO3 (25 mM), 4-(2-hydroxyethyl)-1-piperazineethanesulfonic acid (HEPES, 10 mM) and bovine serum albumin (0.1%). The pH of KRBB was maintained at 7.4. The isolated islets were size-matched and pre-incubated (3 islets/tube) for 45 min at 37°C in KRBB, supplemented with 3 mM glucose. Thereafter, incubation medium was replaced with fresh KRBB (containing 16.7 mM glucose) and islets were incubated for 60 min at 37°C with or without test substance(s). After incubation, supernatant was collected and stored at −40°C until further use. Finally, collected samples were properly diluted and insulin secretion was estimated with ultra-sensitive mouse insulin ELISA kit (Crystal Chem Inc., Downers Grove, United States) according to the manufacturer’s instructions. The absorbance was measured at 450 nm and insulin secretion was normalized for number of islets used. ([Hameed et al., 2018]).

| Structure (SMILES) | Ki (h-NTPDase1) [nM] | Effect on glucose stimulated insulin secretion (mice pancreatic islets) |
| --- | --- | --- |
| CCCCSc1nc2c(N)ncnc2n1[C@@H]1O[C@H](COP(=O)(O)OP(=O)(O)OP(=O)(O)O)[C@@H](O)[C@H]1O [8-Bus-ATP] | 800 ± 200 | – |
| O=C1Nc2ccccc2C1=O [isatin] | – | Neither suramin nor isatin had any significant effect |
